# Target: T1, M2 muscarinic receptor (Homo sapiens, UniProt P08172)
# T1 construct: expressed in transfected cells; host or cells: CHO (M2-CHO)
# T1 sequence (P08172 1-466): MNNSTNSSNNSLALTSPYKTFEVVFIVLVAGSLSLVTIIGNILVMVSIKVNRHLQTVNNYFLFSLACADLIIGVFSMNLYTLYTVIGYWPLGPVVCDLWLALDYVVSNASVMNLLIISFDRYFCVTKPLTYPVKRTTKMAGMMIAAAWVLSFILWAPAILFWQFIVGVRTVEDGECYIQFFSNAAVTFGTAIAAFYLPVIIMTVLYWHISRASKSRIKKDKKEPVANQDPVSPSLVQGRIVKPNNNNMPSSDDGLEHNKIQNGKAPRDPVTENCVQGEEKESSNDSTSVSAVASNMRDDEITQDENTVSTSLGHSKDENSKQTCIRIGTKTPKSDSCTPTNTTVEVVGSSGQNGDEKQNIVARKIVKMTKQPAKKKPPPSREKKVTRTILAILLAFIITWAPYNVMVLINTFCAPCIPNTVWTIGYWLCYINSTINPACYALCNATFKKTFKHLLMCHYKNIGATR
# Experiment: Functional mobilization of intracellular calcium (FLIPR), M2-CHO cells
# Type: cell-based
# Details: 100% efficacy = maximum response obtained with the Carbachol control
# Protocol: (§1) Functional Mobilization of Intracellular Calcium to Determine Muscarinic Receptor Activity:
# (§2) CHO cells expressing muscarinic receptors (M1 to M5) are grown as monolayers in tissue culture flasks at 37° C. in a humidified atmosphere containing 5% CO2 and passaged every 3-5 days. The growth media is Dulbecco's modified eagles medium (DMEM, Gibco Cat# 12430-054), containing 25 mM Hepes and supplemented with Fetal Bovine Serum (Hyclone, cat #SH30071.03), 0.1 mM of MEM non-essential amino acids (GIBCO, Cat #11140-050), 1 mM MEM Sodium Pyruvate (GIBCO Cat #11360-070) and 100 units/ml of Penicillin G and 100 μg/ml of Streptomycin (GIBCO Cat #15140-122). The recombinant muscarinic receptor cell lines are grown under antibiotic pressure with media containing 25 μg/ml zeocin and 500 μg/ml G418 (M1-CHO), 4 μg/ml puromycin, 50 μg/ml zeocin and 2.5 μg/ml blasticidin (M2 and M4-CHO) or 50 μg/ml zeocin and 4 μg/ml puromycin (M3 and M5-CHO).
# (§3) Cells are harvested at 80-90% confluence using Versene (GIBCO Cat #15040-066), collected by centrifugation and seeded 18-24 hrs prior to running the calcium assay at a density of 5,000-10,000 cells/well in […], clear-bottomed 384-well plates (BD Biocoat, poly-D-lysine, Cat#356663). The day of the experiment, the cells are washed with a plate washer (Bioteck Instruments, ELX 405) using bath1 buffer (140-mM NaCl, 4.5-mM KCl, 2-mM CaCl2, 1-mM MgCl2, 10-mM Hepes-Na, 10-mM Glucose, pH 7.4, with NaOH) containing 1 mM Probenecid. Next, the calcium dye Fluo-3 (25 μl/well of Fluo-3 AM at 4 μM, Molecular Probes F-1241, in Bath 1 buffer containing 1 mM Probenecid) is added to the 25 μl of Bath 1 remaining in each well after the plate wash and the dye is loaded at 37° C. in the tissue culture incubator for 60-90 min. The fluorescent dye is removed using the plate washer with Bath 1 containing 1 mM Probenecid, leaving 25 μl/well of this solution after the wash. Alternatively, cells can be loaded with the calcium indicator from Molecular Devices (Calcium 3 Assay Reagents, Cat #R7181) adding 5 μl of a 5× solution dye in Bath 1 containing 1 mM Probenecid (10 ml per dye flask cat #R7182 to generate a solution 20×) to 20 μl of the same buffer. After loading for 60 min, the experiment can be run without having to remove the dye.
# (§4) Compounds are prepared at a 2× fold concentration in a 96-well plate (round bottom, Costar Corning cat #3656), by reconstituting the pre-spotted compounds in bath 1 containing 1 mM probenecid. The final concentration DMSO is 0.5%, and the amount of DMSO is normalized across the assay plate. To determine an agonist action of the compounds on muscarinic receptors, the reconstituted compounds are added (25 μl compound/well) to the cell assay plate (containing 25 μl/well) using the multi-channel robotic system of the FLIPR 3 Instrument (Molecular Devices, Sunnyvale, Calif.). To determine a functional inhibitory action of the compounds on muscarinic receptors, the reconstituted compounds are added (25 μl compound/well) to the assay plate and pre-incubated for 15 min prior to adding 25 μl of Carbachol at 3× the EC80 for each muscarinic subtype. Alternatively, the compounds can be co-applied simultaneously with the agonist. In both assay modes, the fluorescence is recorded for 60 sec (excitation wavelength is […] and emission wavelength 540 nm) using the FLIPR 3 instrument.
# (§5) The potency, efficacy and selectivity of the muscarinic compounds were evaluated by screening the compound activity across the whole family (M1 to M5 cells). Compounds were also screened for activity on other proteins such as other GPCRs and ion channels to determine selectivity on M4 receptors.
# (§6) Examples of activities and efficacies of the muscarinic compounds of formulae (I, Ia, and Ib) on modulating M1 and M4 receptors are shown below in Table 3. […]
row,SMILES,Emax [%]
1,CCOC(=O)N1CCC(N2CCC3(CC2)CC2CC(=O)OC2c2ccccc23)CC1 (centres unmarked) [Compound 4],25 to 100
2,O=C1C[C@@H]2[C@H](N1)c1ccccc1C21CCN(C2C[C@H]3CC[C@@H]2C3)CC1 (some centres unmarked) [Compound 32],25 to 100
3,O=C1CC2CC3(CCN(C4CC5CCC(C5)C4)CC3)c3ccccc3C2O1 (centres unmarked) [Compound 28],< 25
4,CN1C(=O)C[C@@H]2CC3(CCN(C4CCCCCC4)CC3)c3ccccc3[C@@H]21 [Compound 10],25 to 100

# Same assay, conditions: CHO cells expressing M2, calcium mobilization
row,SMILES,EC50 [µM]
1,CCOC(=O)N1CCC(N2CCC3(CC2)CC2CC(=O)OC2c2ccccc23)CC1 (centres unmarked) [Compound 4],< 2
2,O=C1C[C@@H]2[C@H](N1)c1ccccc1C21CCN(C2C[C@H]3CC[C@@H]2C3)CC1 (some centres unmarked) [Compound 32],2 to 5
3,O=C1CC2CC3(CCN(C4CC5CCC(C5)C4)CC3)c3ccccc3C2O1 (centres unmarked) [Compound 28],> 5
4,CN1C(=O)C[C@@H]2CC3(CCN(C4CCCCCC4)CC3)c3ccccc3[C@@H]21 [Compound 10],> 5

# Target: T2, M3 muscarinic receptor (Homo sapiens, UniProt P20309)
# T2 construct: expressed in transfected cells; host or cells: CHO (M3-CHO)
# T2 sequence (P20309 whole entry): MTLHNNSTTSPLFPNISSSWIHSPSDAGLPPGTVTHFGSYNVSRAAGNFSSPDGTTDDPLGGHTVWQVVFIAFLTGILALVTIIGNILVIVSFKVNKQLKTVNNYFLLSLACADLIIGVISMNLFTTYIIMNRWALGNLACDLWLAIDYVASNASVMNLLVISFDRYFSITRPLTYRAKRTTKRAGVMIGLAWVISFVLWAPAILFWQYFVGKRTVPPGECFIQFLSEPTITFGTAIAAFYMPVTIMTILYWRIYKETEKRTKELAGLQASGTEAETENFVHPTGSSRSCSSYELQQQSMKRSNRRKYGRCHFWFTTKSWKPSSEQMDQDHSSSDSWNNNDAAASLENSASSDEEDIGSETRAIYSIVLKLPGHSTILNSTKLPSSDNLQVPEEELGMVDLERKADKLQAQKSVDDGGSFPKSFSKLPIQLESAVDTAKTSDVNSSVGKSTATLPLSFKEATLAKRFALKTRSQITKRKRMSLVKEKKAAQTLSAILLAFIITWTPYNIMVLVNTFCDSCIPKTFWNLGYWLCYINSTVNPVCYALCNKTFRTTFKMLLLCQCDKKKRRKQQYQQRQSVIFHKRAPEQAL
# Experiment: Functional mobilization of intracellular calcium (FLIPR), M3-CHO cells
# Type: cell-based
# Details: 100% efficacy = maximum response obtained with the Carbachol control
# Protocol: as §1, §2, §3, §4, §5, §6
row,SMILES,Emax [%]
1,CCOC(=O)N1CCC(N2CCC3(CC2)CC2CC(=O)OC2c2ccccc23)CC1 (centres unmarked) [Compound 4],25 to 100
2,O=C1C[C@@H]2[C@H](N1)c1ccccc1C21CCN(C2C[C@H]3CC[C@@H]2C3)CC1 (some centres unmarked) [Compound 32],< 25
3,O=C1CC2CC3(CCN(C4CC5CCC(C5)C4)CC3)c3ccccc3C2O1 (centres unmarked) [Compound 28],< 25
4,CN1C(=O)C[C@@H]2CC3(CCN(C4CCCCCC4)CC3)c3ccccc3[C@@H]21 [Compound 10],< 25

# Same assay, conditions: CHO cells expressing M3, calcium mobilization
row,SMILES,EC50 [µM]
1,CCOC(=O)N1CCC(N2CCC3(CC2)CC2CC(=O)OC2c2ccccc23)CC1 (centres unmarked) [Compound 4],> 5
2,O=C1C[C@@H]2[C@H](N1)c1ccccc1C21CCN(C2C[C@H]3CC[C@@H]2C3)CC1 (some centres unmarked) [Compound 32],> 5
3,O=C1CC2CC3(CCN(C4CC5CCC(C5)C4)CC3)c3ccccc3C2O1 (centres unmarked) [Compound 28],> 5
4,CN1C(=O)C[C@@H]2CC3(CCN(C4CCCCCC4)CC3)c3ccccc3[C@@H]21 [Compound 10],> 5

# Target: T3, M4 muscarinic receptor (Homo sapiens, UniProt P08173)
# T3 construct: expressed in transfected cells; host or cells: CHO (M4-CHO)
# T3 sequence (P08173 1-479): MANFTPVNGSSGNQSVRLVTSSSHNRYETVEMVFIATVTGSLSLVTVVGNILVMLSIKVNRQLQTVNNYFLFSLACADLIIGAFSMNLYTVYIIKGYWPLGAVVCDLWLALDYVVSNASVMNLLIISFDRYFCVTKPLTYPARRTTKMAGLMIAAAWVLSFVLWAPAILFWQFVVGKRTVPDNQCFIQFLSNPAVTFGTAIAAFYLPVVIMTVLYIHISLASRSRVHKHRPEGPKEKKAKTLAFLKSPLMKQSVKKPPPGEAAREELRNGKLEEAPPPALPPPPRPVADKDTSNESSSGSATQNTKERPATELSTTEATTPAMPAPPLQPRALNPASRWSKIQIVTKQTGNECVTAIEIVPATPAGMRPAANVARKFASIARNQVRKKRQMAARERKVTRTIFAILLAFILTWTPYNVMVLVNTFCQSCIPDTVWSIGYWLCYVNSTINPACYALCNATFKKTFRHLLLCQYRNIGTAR
# Experiment: Functional mobilization of intracellular calcium (FLIPR), M4-CHO cells
# Type: cell-based
# Details: 100% efficacy = maximum response obtained with the Carbachol control
# Protocol: as §1, §2, §3, §4, §5, §6
row,SMILES,Emax [%]
1,CCOC(=O)N1CCC(N2CCC3(CC2)CC2CC(=O)OC2c2ccccc23)CC1 (centres unmarked) [Compound 4],25 to 100
2,O=C1C[C@@H]2[C@H](N1)c1ccccc1C21CCN(C2C[C@H]3CC[C@@H]2C3)CC1 (some centres unmarked) [Compound 32],25 to 100
3,O=C1CC2CC3(CCN(C4CC5CCC(C5)C4)CC3)c3ccccc3C2O1 (centres unmarked) [Compound 28],25 to 100
4,CN1C(=O)C[C@@H]2CC3(CCN(C4CCCCCC4)CC3)c3ccccc3[C@@H]21 [Compound 10],25 to 100

# Same assay, conditions: CHO cells expressing M4, calcium mobilization
row,SMILES,EC50 [µM]
1,CCOC(=O)N1CCC(N2CCC3(CC2)CC2CC(=O)OC2c2ccccc23)CC1 (centres unmarked) [Compound 4],< 2
2,O=C1C[C@@H]2[C@H](N1)c1ccccc1C21CCN(C2C[C@H]3CC[C@@H]2C3)CC1 (some centres unmarked) [Compound 32],< 2
3,O=C1CC2CC3(CCN(C4CC5CCC(C5)C4)CC3)c3ccccc3C2O1 (centres unmarked) [Compound 28],< 2
4,CN1C(=O)C[C@@H]2CC3(CCN(C4CCCCCC4)CC3)c3ccccc3[C@@H]21 [Compound 10],< 2

# Target: T4, M1 muscarinic receptor (Homo sapiens, UniProt P11229)
# T4 construct: expressed in transfected cells; host or cells: CHO (M1-CHO)
# T4 sequence (P11229 1-460): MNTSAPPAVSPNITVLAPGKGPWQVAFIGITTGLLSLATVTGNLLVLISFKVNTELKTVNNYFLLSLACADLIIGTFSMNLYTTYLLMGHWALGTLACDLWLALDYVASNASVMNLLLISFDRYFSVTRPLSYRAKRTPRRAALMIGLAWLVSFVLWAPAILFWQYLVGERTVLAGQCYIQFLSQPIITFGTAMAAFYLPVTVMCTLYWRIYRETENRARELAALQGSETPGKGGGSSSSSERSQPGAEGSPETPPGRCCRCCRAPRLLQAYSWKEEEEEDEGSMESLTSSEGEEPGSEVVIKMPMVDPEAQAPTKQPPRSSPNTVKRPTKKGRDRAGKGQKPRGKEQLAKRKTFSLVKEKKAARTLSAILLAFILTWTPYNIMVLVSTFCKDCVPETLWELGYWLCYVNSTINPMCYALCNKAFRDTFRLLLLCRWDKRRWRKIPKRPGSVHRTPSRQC
# Experiment: Functional mobilization of intracellular calcium (FLIPR), M1-CHO cells
# Type: cell-based
# Details: 100% efficacy = maximum response obtained with the Carbachol control
# Protocol: as §1, §2, §3, §4, §5, §6
row,SMILES,Emax [%]
1,CCOC(=O)N1CCC(N2CCC3(CC2)CC2CC(=O)OC2c2ccccc23)CC1 (centres unmarked) [Compound 4],25 to 100
2,O=C1C[C@@H]2[C@H](N1)c1ccccc1C21CCN(C2C[C@H]3CC[C@@H]2C3)CC1 (some centres unmarked) [Compound 32],25 to 100
3,O=C1CC2CC3(CCN(C4CC5CCC(C5)C4)CC3)c3ccccc3C2O1 (centres unmarked) [Compound 28],25 to 100
4,CN1C(=O)C[C@@H]2CC3(CCN(C4CCCCCC4)CC3)c3ccccc3[C@@H]21 [Compound 10],25 to 100

# Same assay, conditions: CHO cells expressing M1, calcium mobilization
row,SMILES,EC50 [µM]
1,CCOC(=O)N1CCC(N2CCC3(CC2)CC2CC(=O)OC2c2ccccc23)CC1 (centres unmarked) [Compound 4],< 2
2,O=C1C[C@@H]2[C@H](N1)c1ccccc1C21CCN(C2C[C@H]3CC[C@@H]2C3)CC1 (some centres unmarked) [Compound 32],2 to 5
3,O=C1CC2CC3(CCN(C4CC5CCC(C5)C4)CC3)c3ccccc3C2O1 (centres unmarked) [Compound 28],< 2
4,CN1C(=O)C[C@@H]2CC3(CCN(C4CCCCCC4)CC3)c3ccccc3[C@@H]21 [Compound 10],2 to 5

# Source: patent US7973162B2, “Modulators of muscarinic receptors” (Vertex Pharmaceuticals Incorporated, priority 2007, dated 2011)
